The values that follow come from ChEMBL document CHEMBL1201862, “PubChem BioAssay data set” (2004).

The source made the active and inactive calls.

Cytochrome P450 2C9, sequence (P11712 whole entry): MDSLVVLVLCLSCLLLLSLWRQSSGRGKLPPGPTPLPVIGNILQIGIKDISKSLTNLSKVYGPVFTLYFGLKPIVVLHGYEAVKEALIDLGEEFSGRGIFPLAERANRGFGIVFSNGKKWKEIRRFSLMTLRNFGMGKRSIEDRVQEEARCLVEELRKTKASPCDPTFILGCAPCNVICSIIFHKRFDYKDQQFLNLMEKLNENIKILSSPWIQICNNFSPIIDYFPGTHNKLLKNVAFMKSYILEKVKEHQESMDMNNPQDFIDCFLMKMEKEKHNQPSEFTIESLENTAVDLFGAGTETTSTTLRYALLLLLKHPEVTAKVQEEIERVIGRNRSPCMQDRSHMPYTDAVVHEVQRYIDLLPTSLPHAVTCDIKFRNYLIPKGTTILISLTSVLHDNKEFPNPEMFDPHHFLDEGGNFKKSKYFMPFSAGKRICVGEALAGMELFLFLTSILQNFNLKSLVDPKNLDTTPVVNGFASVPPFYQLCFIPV

One data set concerns P388. The data set can be described thus: cells. The format is functional. Particulars: Mus musculus.
Consider `CO[C@H]1C[C@](C)(O)Cc2cc3c(c(O)c21)C(=O)c1c(O)cc2c(c1C3=O)O[C@@H]1O[C@@]2(C)[C@H](O)[C@@H](N(C)C)[C@@H]1O`, for which the GI50 was 0.054 µM (active).

The next data set concerns Streptococcus sp. 'group A'. The data set can be described thus: growth inhibition of control SK(-) GAS strain, dose response, counter-screen for streptokinase expression inhibitor project, luminescence, kanamycin, BacTiterGlo, confirmation (AID 1900). Format: functional, organism-based.
Conditions: not given
A general note: The purpose of a counterscreen is to sort out artefacts and off-target activity.
For the compound `Cc1ccc(C(C)C)cc1NC(=O)Nc1ccc([N+](=O)[O-])cc1`, the concentration giving a half-maximal response (EC50) is 6.64 µM (active).

Another data set concerns the target T1, Streptokinase A (Streptococcus pyogenes serotype M1, UniProt P10520).
T1 sequence (P10520 whole entry): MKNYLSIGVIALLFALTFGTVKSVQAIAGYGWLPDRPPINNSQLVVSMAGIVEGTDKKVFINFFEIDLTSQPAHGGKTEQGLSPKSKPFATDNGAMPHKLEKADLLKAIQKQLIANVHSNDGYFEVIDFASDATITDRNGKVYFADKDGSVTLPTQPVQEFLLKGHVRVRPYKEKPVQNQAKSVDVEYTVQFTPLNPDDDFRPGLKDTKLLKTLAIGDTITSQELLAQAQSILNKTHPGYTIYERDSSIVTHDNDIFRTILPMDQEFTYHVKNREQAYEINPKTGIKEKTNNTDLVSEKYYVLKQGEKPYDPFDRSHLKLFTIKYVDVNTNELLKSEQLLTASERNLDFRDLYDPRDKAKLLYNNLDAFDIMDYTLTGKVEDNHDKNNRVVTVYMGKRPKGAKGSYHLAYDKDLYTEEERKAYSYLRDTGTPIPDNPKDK
The data set can be described thus: S. pyogenes streptokinase expression inhibitors, potency, dose response, plasminogen activation absorbance, OD405 (AID 1914).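 Further: secreted streptokinase activity via plasminogen activation per viability signal from cell pellet.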
Conditions: not given
Format: functional, Streptococcus pyogenes M1 GAS.
For `Cc1ccc(C(C)C)cc1NC(=O)Nc1ccc([N+](=O)[O-])cc1`, the 50% effective concentration (EC50) was 10.8 µM (active).

Tested on in the next data set: not listed separately
As to the kind of experiment: growth suppression of PTEN-null colon cells, dose response, cell-based, HCT116 PTEN knockout (AID 1047).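 Further: HCT116 colon tumor cells with PTEN knocked out; cells exposed to compound for 60 hours before readout; potency for loss of cell viability measured by luminescence.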 The format is functional.
Conditions: not given
`CCOC(=O)C1=C(c2ccccc2)N=c2s/c(=C\c3ccc(O)cc3)c(=O)n2C1c1cccs1` (configuration not stated): the EC50 was 19.7 µM (active).

Tested on in another data set: not listed separately
The data set can be described thus: growth suppression of beta-catenin-knockout colon cells, dose response, cell-based, HCT116, human colon tumor (AID 1045).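 Further: HCT116 colon tumor cells with beta catenin knocked out; cells exposed to compound for 60 hours.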
Conditions: not given
Format: functional.
As for `CCOC(=O)C1=C(c2ccccc2)N=c2s/c(=C\c3ccc(O)cc3)c(=O)n2C1c1cccs1` (configuration not stated), the concentration for a half-maximal effect (EC50) was 17.9 µM (active).

The next data set concerns the target Cytochrome P450 2C9 (Homo sapiens, UniProt P11712).
Assay: not given
Conditions: not given
Consider `CC(=O)N1c2c(cc(Br)cc2S(=O)(=O)NCC2COc3ccccc3O2)CC1C` (configuration not stated), for which the AC50 result is “inconclusive”.

Regarding `CCCN(CCC)C[C@@H]1CCCCN1CCNC(=O)N1c2ccccc2C(=O)Nc2cccnc21`, the concentration at half-maximal activity (AC50) result is listed as “inconclusive”.

For `Cc1cc2nnc(SCCCCN3C(=O)c4ccccc4C3=O)n2c2ccccc12`, the AC50 entry is reported as “inconclusive”.

For `O=C1c2cccc([N+](=O)[O-])c2C(=O)N1c1ncn[nH]1`, the AC50 result was “inconclusive”.

Take `COc1ccc(/C=C(/C#N)C(=O)NC2CCCCC2)cc1Br`: the AC50 result was “inconclusive”.

Regarding `O=C(Nc1ccccc1N1CCOCC1)c1ccccc1[N+](=O)[O-]`, the AC50 result is “inconclusive”.

As to `COc1ccc(Oc2ncc3nc(-c4cn(C)c5ccccc45)c(=O)n(CCC#N)c3n2)cc1`, the AC50 result is given as “inconclusive”.

Regarding `COc1cc(-c2nnc(-c3ccc(N4CCOCC4)cc3)o2)cc(OC)c1OC`, the AC50 result is on record as “inconclusive”.

For `O=C(NC1CCCC1)C1CC(c2ccc(F)cc2)=NO1` (configuration not stated), the concentration at half-maximal activity (AC50) result was “inconclusive”.

On to `CN(C)c1ncc2nc(-c3cc(F)cc(F)c3)c(=O)n(CCC#N)c2n1`, for which the AC50 result is “inconclusive”.

Consider `CCC[C@H]1C[C@H](C(=O)N[C@H]([C@@H]2O[C@H](SC)[C@@H](O)[C@H](O)[C@@H]2O)[C@H](C)O)N(C)C1`, for which the AC50 result is listed as “inconclusive”.

As to `CNc1nc(-c2ccccc2Cl)nc2ccccc12`, the AC50 result is “inconclusive”.

For `CCOC(=O)C1=C(c2ccccc2)N=c2s/c(=C\c3ccc(O)cc3)c(=O)n2C1c1cccs1` (configuration not stated), the AC50 result is “inconclusive”.

On to `O=C(O)Cc1nn(Cc2ccc(Br)cc2F)c(=O)c2ccccc12` [PONALRESTAT], for which the AC50 entry is recorded as “inconclusive”.

Turning to `COc1ccn(C)c(=O)c1C#N` [RICININE], the AC50 entry was “inconclusive”.

For another data set, the target named is Cytochrome P450 3A4 (Homo sapiens, UniProt P08684).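 Further: CYP3A4 tested as one member of a cytochrome P450 panel screen.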
Cytochrome P450 3A4, sequence (P08684 whole entry): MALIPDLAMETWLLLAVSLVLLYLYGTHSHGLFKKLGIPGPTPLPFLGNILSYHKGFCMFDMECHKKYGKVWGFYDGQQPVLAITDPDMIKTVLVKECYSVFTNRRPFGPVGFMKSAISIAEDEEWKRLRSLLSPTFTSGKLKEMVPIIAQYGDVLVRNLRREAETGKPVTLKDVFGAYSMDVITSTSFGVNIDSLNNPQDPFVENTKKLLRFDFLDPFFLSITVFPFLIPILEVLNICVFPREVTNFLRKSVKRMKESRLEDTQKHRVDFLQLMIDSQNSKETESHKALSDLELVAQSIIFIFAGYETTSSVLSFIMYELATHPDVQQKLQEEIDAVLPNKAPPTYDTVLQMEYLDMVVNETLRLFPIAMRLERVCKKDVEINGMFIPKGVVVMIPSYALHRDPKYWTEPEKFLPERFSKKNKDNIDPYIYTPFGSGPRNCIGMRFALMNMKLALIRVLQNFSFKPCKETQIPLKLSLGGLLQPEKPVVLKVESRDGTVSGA
Assay: not given
Conditions: not given
`CCCN(CCC)C[C@@H]1CCCCN1CCNC(=O)N1c2ccccc2C(=O)Nc2cccnc21`: the AC50 was 15.8 µM (inconclusive).

As to `O=C1c2cccc([N+](=O)[O-])c2C(=O)N1c1ncn[nH]1`, the concentration at half-maximal activity (AC50) is 3.98 µM (inconclusive).

For the compound `COc1ccc(/C=C(/C#N)C(=O)NC2CCCCC2)cc1Br`, the concentration at half-maximal activity (AC50) is 25.1 µM (inconclusive).

Regarding `COc1cc(-c2nnc(-c3ccc(N4CCOCC4)cc3)o2)cc(OC)c1OC`, the AC50 was 7.94 µM (inconclusive).

For `O=C(NC1CCCC1)C1CC(c2ccc(F)cc2)=NO1` (configuration not stated), the AC50 is 25.1 µM (inconclusive).

Turning to `CN(C)c1ncc2nc(-c3cc(F)cc(F)c3)c(=O)n(CCC#N)c2n1`, the AC50 was 39.8 µM (inconclusive).

The target of the next data set is Cytochrome P450 2C19 (Homo sapiens, UniProt P33261). As to the kind of experiment: Cytochrome panel assay with activity outcomes. Panel member name: p450-cyp2c19 Compounds with AC50 equal or less than 10 uM are considered active. The format is functional.
Cytochrome P450 2C19, sequence (P33261 whole entry): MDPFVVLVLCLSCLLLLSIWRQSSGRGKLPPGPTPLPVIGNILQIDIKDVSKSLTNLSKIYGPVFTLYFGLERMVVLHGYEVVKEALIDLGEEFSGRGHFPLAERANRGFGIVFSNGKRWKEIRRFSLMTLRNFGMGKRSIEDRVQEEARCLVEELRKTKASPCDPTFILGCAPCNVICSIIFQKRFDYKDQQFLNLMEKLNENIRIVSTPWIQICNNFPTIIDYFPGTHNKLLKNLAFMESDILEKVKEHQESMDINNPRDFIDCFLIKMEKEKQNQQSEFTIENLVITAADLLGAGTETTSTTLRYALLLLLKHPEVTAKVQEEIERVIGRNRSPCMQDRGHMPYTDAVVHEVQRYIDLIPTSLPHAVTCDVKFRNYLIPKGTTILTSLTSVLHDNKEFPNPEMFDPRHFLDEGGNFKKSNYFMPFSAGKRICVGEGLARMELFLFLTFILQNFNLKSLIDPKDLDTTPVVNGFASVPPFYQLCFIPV
Conditions: not given
On to `O=C1c2cccc([N+](=O)[O-])c2C(=O)N1c1ncn[nH]1`, for which the AC50 result was “inconclusive”.

The same data set, now with this note: read-out: AC50.
With `CCOC(=O)C1=C(c2ccccc2)N=c2s/c(=C\c3ccc(O)cc3)c(=O)n2C1c1cccs1` (configuration not stated), the half-maximal activity concentration (AC50) was 3.98 µM (inconclusive).

The next data set deals with SN12K1. As to the kind of experiment: cells. Format: functional. To be noted: Homo sapiens.
Regarding `CO[C@H]1C[C@](C)(O)Cc2cc3c(c(O)c21)C(=O)c1c(O)cc2c(c1C3=O)O[C@@H]1O[C@@]2(C)[C@H](O)[C@@H](N(C)C)[C@@H]1O`, the GI50 is 0.0736 µM (active).

A further data set deals with Cytochrome P450 2D6 (Homo sapiens, UniProt P10635).
Cytochrome P450 2D6, sequence (P10635 whole entry): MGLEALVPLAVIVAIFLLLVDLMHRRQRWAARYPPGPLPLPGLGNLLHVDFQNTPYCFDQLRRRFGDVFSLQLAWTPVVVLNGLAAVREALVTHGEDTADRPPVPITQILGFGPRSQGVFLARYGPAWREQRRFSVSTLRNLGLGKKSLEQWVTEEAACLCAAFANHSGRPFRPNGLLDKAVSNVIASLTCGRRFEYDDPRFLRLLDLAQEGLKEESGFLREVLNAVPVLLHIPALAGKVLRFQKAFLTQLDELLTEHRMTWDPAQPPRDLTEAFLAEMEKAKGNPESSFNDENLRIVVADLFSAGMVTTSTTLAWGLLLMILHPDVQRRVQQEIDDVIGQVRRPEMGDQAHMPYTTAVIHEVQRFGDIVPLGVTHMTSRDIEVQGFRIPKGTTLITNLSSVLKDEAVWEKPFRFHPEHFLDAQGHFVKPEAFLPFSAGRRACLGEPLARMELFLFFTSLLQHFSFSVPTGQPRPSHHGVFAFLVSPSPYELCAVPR
Assay: not given
Conditions: not given
With `CC(=O)N1c2c(cc(Br)cc2S(=O)(=O)NCC2COc3ccccc3O2)CC1C` (configuration not stated), the AC50 was 17.8 µM (inconclusive).

With `CNc1nc(-c2ccccc2Cl)nc2ccccc12`, the concentration at half-maximal activity (AC50) was 39.8 µM (inconclusive).

In the next data set the test system is H9c2. The data set can be described thus: cells. Particulars: Rattus norvegicus, H9c2, Myocardium. The format is functional, cell-based.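 Further: confirmatory concentration-response retest of ultra-high-throughput screening hits for modulation of myocardial damage; cell death induced by hydrogen peroxide oxidative stress; compound pretreatment for 60 min then peroxide exposure for 2 h; potency is for protecting the cells against peroxide damage rather than for killing them.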
`COc1cc(-c2nnc(-c3ccc(N4CCOCC4)cc3)o2)cc(OC)c1OC`: the IC50 is > 79 µM (inactive).

Another data set deals with Streptococcus. The data set can be described thus: Group A Streptococcus viability loss, dose response, counter-screen for streptokinase expression inhibitor project, luminescence, BacTiterGlo (AID 1915).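 Further: potency for reduction of bacterial viability or growth.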 The format is functional, organism-based.
Conditions: not given
In the case of `Cc1ccc(C(C)C)cc1NC(=O)Nc1ccc([N+](=O)[O-])cc1`, the concentration giving a half-maximal response (EC50) was 17.5 µM (active).

Another data set deals with P388/ADR. The data set can be described thus: cells. To be noted: Mus musculus. Format: functional.
On to `CO[C@H]1C[C@](C)(O)Cc2cc3c(c(O)c21)C(=O)c1c(O)cc2c(c1C3=O)O[C@@H]1O[C@@]2(C)[C@H](O)[C@@H](N(C)C)[C@@H]1O`, for which the GI50 was 1.21 µM (inactive).

Tested on in the next data set: not listed separately
The data set can be described thus: HepG2 cell cytotoxicity, dose response, cytotoxicity control for Shn3 inhibitor project, CellTiter-Glo, cherry-picked (AID 624134). The format is functional, cell-based.
Conditions: not given
Turning to `Cc1ccc(C(C)C)cc1NC(=O)Nc1ccc([N+](=O)[O-])cc1`, the AC50 is 22.4 µM (active).

Tested on in another data set: not listed separately
As to the kind of experiment: control 3'UTR Renilla luciferase suppression, dose response, counter-screen for Shn3 inhibitor project, cell-based, Clone20-Shn3RL, cherry-picked (AID 624133). Format: functional.
Conditions: not given
As for `Cc1ccc(C(C)C)cc1NC(=O)Nc1ccc([N+](=O)[O-])cc1`, the half-maximal activity concentration (AC50) is 6.53 µM (active).

The target of a further data set is T2, Cytochrome P450 1A2 (Homo sapiens, UniProt P05177).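 Further: PubChem cytochrome P450 panel assay, CYP1A2 panel member.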
T2 sequence (P05177 whole entry): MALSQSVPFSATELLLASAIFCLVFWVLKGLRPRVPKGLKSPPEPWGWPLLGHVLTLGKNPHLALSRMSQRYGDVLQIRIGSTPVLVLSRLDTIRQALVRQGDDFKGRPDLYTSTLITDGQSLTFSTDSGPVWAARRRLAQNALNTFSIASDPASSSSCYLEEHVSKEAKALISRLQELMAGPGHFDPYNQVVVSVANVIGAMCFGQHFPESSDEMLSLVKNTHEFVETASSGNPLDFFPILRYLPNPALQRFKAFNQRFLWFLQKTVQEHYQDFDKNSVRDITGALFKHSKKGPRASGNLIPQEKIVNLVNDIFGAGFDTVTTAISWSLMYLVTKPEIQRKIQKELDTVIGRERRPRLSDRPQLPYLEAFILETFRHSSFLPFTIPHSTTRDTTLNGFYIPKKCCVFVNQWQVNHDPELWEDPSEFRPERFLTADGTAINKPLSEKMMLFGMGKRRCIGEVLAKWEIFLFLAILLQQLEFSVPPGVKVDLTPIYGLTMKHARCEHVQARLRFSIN
Assay: not given
Conditions: not given
Regarding `CCCN(CCC)C[C@@H]1CCCCN1CCNC(=O)N1c2ccccc2C(=O)Nc2cccnc21`, the AC50 is 25.1 µM (inconclusive).

Consider `O=C1c2cccc([N+](=O)[O-])c2C(=O)N1c1ncn[nH]1`, for which the AC50 is 3.16 µM (inconclusive).

For `O=C(Nc1ccccc1N1CCOCC1)c1ccccc1[N+](=O)[O-]`, the concentration at half-maximal activity (AC50) is 12.6 µM (inconclusive).

With `COc1ccc(Oc2ncc3nc(-c4cn(C)c5ccccc45)c(=O)n(CCC#N)c3n2)cc1`, the half-maximal activity concentration (AC50) is 2 µM (inconclusive).

On to `O=C(O)Cc1nn(Cc2ccc(Br)cc2F)c(=O)c2ccccc12` [PONALRESTAT], for which the AC50 is 31.6 µM (inconclusive).

Tested on in a further data set: not listed separately
The data set can be described thus: Shn3 3'UTR reporter inhibitors, dose response, cell-based, Clone20 osteoblasts, firefly luciferase, cherry-picked (AID 624132).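 Further: firefly luciferase luminescence from reporter carrying the Shn3 3'UTR in osteoblasts.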 Format: functional.
Conditions: not given
`Cc1ccc(C(C)C)cc1NC(=O)Nc1ccc([N+](=O)[O-])cc1`: the AC50 was 7.19 µM (active).

As usually defined, the GI50 is the concentration that inhibits growth by half. In general, EC50 refers to the concentration needed to bring the measured effect to its halfway point. Usually AC50 stands for the concentration at which the activity in the assay is half-maximal. The term IC50 denotes the midpoint of a concentration-inhibition curve.
